Experimental data taken from patent publication US9376663B2, “GPR15-mediated homing and uses thereof” (New York University, priority 2013, dated 2016).

Assays:
[1] = molecular target: T1, inducible caspase 9 (iCasp9) (Homo sapiens, UniProt P55211+P62942, F37V); conditions: patients wherein GVHD developed; cited from earlier work
T1 construct: human caspase 9 (fusion partner in the same polypeptide)

[2] = test system: GPR15 expression; test: In vitro stimulation of T cells to examine GFP (GPR15 reporter) induction; type: cell-based, mouse; conditions: various concentration of retinoic acid with IL-2 only, 3 days, CD4+ Tnaive and Tregs from Gpr15gfp/+ Foxp3ires-mrfp mice
Procedure: All T cell cultures were done in RPMI-10. CD4^+ Tnaive (CD62L^hiCD44^loCD25^−mRFP^− GFP^−), Tregs with naive phenotype (CD62L^hiCD44^loCD25^+mRFP^+ GFP^−), Tmemory (CD62L^loCD44^hiCD25^−mRFP^− GFP^−), and Tregs with memory phenotype (CD62L^loCD44^hiCD25^+mRFP^+ GFP^−) were sorted from Gpr15^gfp/+ Foxp3^ires-mrfp mice. Sorted cells were stimulated with 0.25 μg/ml αCD3ε (145-2c11, ATCC) and 1 μg/ml of αCD28 antibodies (37.51, eBiosciences) cross-linked by plate-bound α-hamster IgG in the presence of human IL-2 (100 U/ml) alone, or additionally with IL-21 (10 ng/ml, R&D systems) or IL-6 (20 ng/ml, Peprotech), or IL-27 (20 ng/ml, eBioscience) in the presence of varying concentrations of human TGF-β1 (αTGFβ blocking antibody [R&D systems], or 0, 0.5 ng/ml, or 5 ng/ml TGF-β1 [Peprotech]) for 3 days. The same conditions were used for retinoic acid (Sigma-Aldrich) treatment with IL-2 only.

[3] = test system: homing of T cells to the large intestine lamina propria (LILP); test: Short-term competitive homing assay; type: in vivo, mouse; conditions: GPR15+ cells treated before transfer, co-transfer with untreated control-transduced cells
Procedure: The coding region of mouse GPR15 was cloned into the MSCV-IRES-Thy1.1 retroviral construct (38). Retroviruses were generated by transient transfection of Phoenix cells. CD4^+ CD62L^highCD44^lowCD25^− Tnaive cells were sorted by FACS Aria IIu (BD Biosciences) and stimulated with 0.25 μg/ml of αCD3ε (145-2c11, ATCC) and 1 μg/ml of αCD28 (37.51, eBiosciences) antibodies cross-linked by plate-bound α-hamster IgG (MP Biochemical) in RPMI-10. At day 1 and day 2 after stimulation, cells were transduced with retrovirus (spinning at 850 g for 2 h with 4 μg/ml of polybrene). CD4^+ Tnaive cells from B6. SJL-Ptprc^aPep3^b/BoyJ (The Jackson Laboratory) were used for transduction of Gpr15 and CD4^+ Tnaive cells from C57BL/6 were used for transduction of empty vector. At day 3, cells were washed and plated again only with 100 U/ml of IL-2. At day 5, live cells were harvested by lymphocyte-M (Cedarlane). The congenic cells were mixed at a 1:1 ratio and 20-30 million mixed cells in total were transferred intravenously into the recipient mice (C57BL/6). Migration of donor cells into each organ was determined at 10 h after transfer (unless specified) by flow cytometry analysis. All donor cells expressed THY1.1 and GPR15-expressing cells and control cells expressed CD45.1 and CD45.2, respectively. […]

T1 sequence (P62942+P55211 fused P62942:F37V): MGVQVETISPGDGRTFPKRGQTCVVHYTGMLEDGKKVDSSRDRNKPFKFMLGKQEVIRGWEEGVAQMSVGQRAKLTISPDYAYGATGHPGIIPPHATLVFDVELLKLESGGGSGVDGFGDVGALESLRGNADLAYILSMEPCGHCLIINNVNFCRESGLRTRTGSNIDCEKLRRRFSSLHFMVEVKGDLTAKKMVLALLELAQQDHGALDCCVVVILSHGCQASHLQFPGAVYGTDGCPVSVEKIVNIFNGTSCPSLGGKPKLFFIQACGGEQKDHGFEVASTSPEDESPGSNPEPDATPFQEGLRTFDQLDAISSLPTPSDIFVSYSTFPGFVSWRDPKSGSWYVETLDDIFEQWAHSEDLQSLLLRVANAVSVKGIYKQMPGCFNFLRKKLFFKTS

## CC[C@H](C(=O)N1CCCC[C@H]1C(=O)O[C@H](CCc1ccc(OC)c(OC)c1)c1cccc(OCC(=O)NCCNC(=O)COc2cccc([C@@H](CCc3ccc(OC)c(OC)c3)OC(=O)[C@@H]3CCCCN3C(=O)[C@@H](CC)c3cc(OC)c(OC)c(OC)c3)c2)c1)c1cc(OC)c(OC)c(OC)c1 [AP1903]
[1]
  elimination of the transplanted genetically modified T cells: greater than 90%

## CC1=C(/C=C/C(C)=C/C=C/C(C)=C/C(=O)O)C(C)(C)CCC1 [Retinoic acid]
[2]
  GPR15 induction (GFP reporter): does not induce GPR15 expression
[2]; listed as RA
  GPR15 induction (GFP reporter): not induced

## pertussis toxin
[3]
  enrichment of Gpr15-transduced cells in the LILP after treatment of the cells before transfer: no longer enriched in the LILP
